# Data: patent US6897222B2, “Pyrido[2,1-a]isoquinoline derivatives” (Hoffmann-La Roche Inc., priority 2001, dated 2005)
# pIC50: −log10 of the molar value.
# Target: T1, human DPP-IV (Homo sapiens, UniProt P27487)
# T1 construct: made in house; host or cells: Pichia pastoris
# Test: DPP-IV activity assay (fluorogenic or colorimetric), IC50 determination
# Format: biochemical
# Conditions: natural human DPP-IV from plasma pool or recombinant human DPP-IV; substrate 50 μM (fluorogenic) or 200 μM (colorimetric); 37° C., pH 7.8
# Procedure: Activity of DPP-IV inhibitors are tested with natural human DPP-IV derived from a human plasma pool or with recombinant human DPP-IV. Human citrate plasma from different donors is pooled, filtered through a 0.2 micron membrane under sterile conditions and aliquots of 1 ml are shock frozen and stored at −120° C. until used. In the colorimetric DPP-IV assay 5 to 10 μl human plasma and in the fluorometric assay 1.0 μl of human plasma in a total assay volume of 100 μl is used as an enzyme source. […] Human DPP-IV is expressed and purified from the culture medium using conventional column chromatography including size exclusion and anion and cation chromatography. […] In the colorimetric DPP-IV assay 20 ng rec.-h DPP-IV and in the fluorometric assay 2 ng rec-h DPP-IV in a total assay volume of 100 μl is used as an enzyme source.
# A 20 mM stock solution in 10% DMF/H2O is stored at −20° C. until use.
# In the colorimetric assay H-Ala-Pro-pNA. […] A 10 mM stock solution in 10% MeOH/H2O is stored at −20° C. until use.
# Initial rate constants are calculated by best fit linear regression.
# DPP-IV activity assays are performed in 96 well plates at 37° C. in a total assay volume of 100 μl. The assay buffer consists of 50 mM Tris/HCl pH 7.8 containing 0.1 mg/ml BSA and 100 mM NaCl. Test compounds are solved in 100% DMSO, diluted to the desired concentration in 10% DMSO/H2O. The final DMSO concentration in the assay is 1% (v/v).
# Compounds are with (10 minutes at 37° C.) and without preincubation with the enzyme. Enzyme reactions are started with substrate application followed by immediate mixing.
# Kinetic parameters of the enzyme reaction are calculated at at least 5 different substrate concentrations and at least 5 different test compound concentrations.
# T1 sequence (P27487 31-766): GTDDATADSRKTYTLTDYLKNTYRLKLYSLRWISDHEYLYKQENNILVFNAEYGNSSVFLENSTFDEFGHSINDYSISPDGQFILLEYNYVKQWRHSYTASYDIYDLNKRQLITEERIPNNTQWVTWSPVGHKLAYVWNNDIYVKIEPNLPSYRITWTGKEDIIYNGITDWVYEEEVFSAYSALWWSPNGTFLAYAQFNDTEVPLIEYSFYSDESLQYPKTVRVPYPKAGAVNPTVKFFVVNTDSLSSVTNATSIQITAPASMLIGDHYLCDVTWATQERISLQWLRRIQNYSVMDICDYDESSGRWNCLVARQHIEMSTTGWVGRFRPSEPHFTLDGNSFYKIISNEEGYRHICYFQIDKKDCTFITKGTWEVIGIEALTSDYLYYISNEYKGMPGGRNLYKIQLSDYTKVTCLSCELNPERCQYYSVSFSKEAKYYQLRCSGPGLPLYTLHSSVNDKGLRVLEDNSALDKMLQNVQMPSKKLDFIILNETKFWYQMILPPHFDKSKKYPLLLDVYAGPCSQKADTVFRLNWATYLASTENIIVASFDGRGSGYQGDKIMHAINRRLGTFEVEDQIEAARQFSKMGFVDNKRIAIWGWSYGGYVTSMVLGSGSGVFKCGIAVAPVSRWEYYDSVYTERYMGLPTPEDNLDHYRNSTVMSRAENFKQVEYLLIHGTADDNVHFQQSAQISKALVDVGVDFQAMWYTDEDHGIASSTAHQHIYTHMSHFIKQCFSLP
row,Compound,pIC50
1,"COc1cc2c(cc1OC)C1CC(N)C(CCC(C)C)CN1CC2 (racemic) [Example 5, rac-9,10-Dimethoxy-3β-(3-methyl-butyl)-1,3,4,6,7,11bβ-hexahydro-2H-pyrido[2,1-a]isoquinolin-2α-ylamine]",6.24
2,"CCCCC1CN2C(CC1N)c1cc(OC)c(OC)cc1C1CCCCC12 (mixture of isomers) [Example 17, rac-7β-Butyl-11,12-dimethoxy-2,3,4,4a,6,7,8,9,9a,13bβ-decahydro-1H-pyrido[1,2-f]phenanthridin-8β-ylamine]",6.85
3,"CCCCC1CN2C(CC1N)c1cc(OC)c(OC)cc1C1CCCCC12 (racemic) [Example 36, rac-7β-Butyl-11,12-dimethoxy-2,3,4,4a,6,7,8,9,9a,13bβ-decahydro-1H-pyrido[1,2-f]phenanthridin-8β-ylamine chlorohydrate (1:2)]",6.80

# The next lines start with the values.
row,pIC50,Compound
1,6.21,"CCCC[C@@H]1CN2CCc3cc(O)c(OC)cc3[C@H]2C[C@H]1N (racemic) [Example 39, rac-2α-Amino-3β-butyl-10-methoxy-1,3,4,6,7,11bβ-hexahydro-2H-pyrido[2,1-a]isoquinolin-9-ol chlorohydrate (1:2)]"
2,6.47,"CCCCC1CN2CCc3cc(O)c(OC)cc3C2CC1N (racemic) [Example 43b, rac-2α-amino-3β-butyl-10-methoxy-1,3,4,6,7,11bβ-hexahydro-2H-pyrido[2,1-a]isoquinolin-9-ol]"
